Series [1] concerns Pan troglodytes. Kind of series: Natriuretic activity in chimpanzee assessed as change sodium level in urine measured per min at 5 mg/kg, po. The series is classed as functional.
In series [2] the test system is Pan troglodytes. Kind of series: Ratio of change in urate excretion to change in inulin excretion in chimpanzee in urine at 5 mg/kg, po. The series is classed as functional.
Series [3] is described as follows: Acute toxicity in iv dosed mouse. It counts as organism-based. The conditions noted are these: in vivo.
Series [4] concerns Rattus norvegicus. Kind of series: Natriuretic activity in po dosed Charles River rat assessed as sodium level in urine per cage collected 0.5 hrs interval relative to 2-(3,6,7-trimethyl-1-oxo-2,3-dihydro-1H-inden-5-yloxy)acetic acid. The series is classed as functional.
Series [5] deals with Canis familiaris. Kind of series: Diuretic activity in dog assessed as sodium level in urine collected for 2 hrs at 5 mg/kg, iv over a period of 5 mins (reference value: 5 to 30 microEq). It counts as functional, Canis lupus familiaris.
Series [6] concerns Canis familiaris. Kind of series: Diuretic activity in dog assessed as potassium level in urine collected for 2 hrs at 5 mg/kg, iv over a period of 5 mins (reference value: 5 to 30 microEq). The series is classed as functional, Canis lupus familiaris.
In series [7] the test system is Canis familiaris. Kind of series: Diuretic activity in dog assessed as chloride level in urine collected for 2 hrs at 5 mg/kg, iv over a period of 5 mins (reference value: 1 to 10 microEq). The series is classed as functional, Canis lupus familiaris.
The test system of series [8] is Canis familiaris. Kind of series: Diuretic activity in dog assessed as urine volume collected for 2 hrs at 5 mg/kg, iv over a period of 5 mins (reference value: 1 to 2 mL). The series is classed as functional, Canis lupus familiaris.
For series [9], the system named is Canis familiaris. Kind of series: Diuretic activity in dog assessed as sodium level in urine collected for 2 hrs at 1.5 mg/kg, iv over a period of 5 mins (reference value: 29 microEq). The series is classed as functional, Canis lupus familiaris.
The subject of series [10] is Canis familiaris. Kind of series: Diuretic activity in dog assessed as potassium level in urine collected for 2 hrs at 1.5 mg/kg, iv over a period of 5 mins (reference value: 18 microEq). It counts as functional, Canis lupus familiaris.
Series [11] relates to Canis familiaris. Kind of series: Diuretic activity in dog assessed as chloride level in urine collected for 2 hrs at 1.5 mg/kg, iv over a period of 5 mins (reference value: 1 microEq). It counts as functional, Canis lupus familiaris.
For series [12], the system named is Canis familiaris. Kind of series: Diuretic activity in dog assessed as urine volume collected for 2 hrs at 1.5 mg/kg, iv over a period of 5 mins (reference value: 1 mL). It counts as functional, Canis lupus familiaris.

The text below walks through data of ChEMBL document CHEMBL3272024, “(Acylaryloxy)acetic acid diuretics. 1. (2-Alkyl- and 2,2-dialkyl-1-oxo-5-indanyloxy)acetic acids” (J Med Chem, 1977).

Turning to `O=C(O)COc1cc2c(c(Cl)c1Cl)C(=O)C(C1CCCC1)C2` (stereo in doubt; 4p), the Activity in series [1] (5 mg/kg) was 223 uEq; in series [5], 20 uEq; in series [6], 37 uEq; in series [7] it was 5 uEq; in series [8], 2 mL. The Ratio in [2] (5 mg/kg) is 0.18; in [4], 1.8. In addition, in series [3], the LD50 (usually the dose at which mortality reaches 50%) came out at 222 mg/kg.
Turning to `NS(=O)(=O)c1cc(C(=O)O)c(NCc2ccco2)cc1Cl` [FUROSEMIDE], the Activity in series [1] turned out to be 1035 uEq; in series [9] it was 960 uEq; in series [10] it was 141 uEq; in series [11], 1081 uEq; in [12] it was 3 mL. Besides, the Ratio in series [2] was -0.02.
